US20190315966A1, “COMPOUNDS FOR THE DETECTION OF SENESCENT CELLS” (THE UNIVERSITY OF MANCHESTER, priority 2016, published 2019)

Experiments:
[1] = Ethanol solubility of the stain in the histochemical method; format: physicochemical; conditions: stain diluted in ethanol / 70% ethanol (v/v) and filtered
[2] = tested on: lipofuscin rich cells in human seminal vesicle and human liver with steatohepatitis; test: Control staining of reference tissues with high lipofuscin content (seminal vesicle, liver with steatohepatitis); conditions: human seminal vesicle and liver with steatohepatitis sections
Experimental: (§1) Tissue sections were obtained from paraffin embedded, formalin fixed: (a) human seminal vesicle and (b) human liver with steatohepatitis that have high content of lipofusin making them ideal reference (control) tissues to test the SBB assay. Subsequently, they were immobilized on glass microscopy slides by standard procedures and processed as follows: • a. Deparaffinization for 5 min at room temperature in xylene. • b. Gradual rehydration in solutions of descending concentration of ethanol (100%, 80%, 70%, 50% v/v) and finally in TBS (Tris-buffered saline) or PBS (Phosphate-buffered saline) solution. • c. The SSB dye was diluted in 70% ethanol (v/v), filtered and then applied on tissue sections for 10 min. • d. Quick wash in 50% (v/v) ethanol. • e. Transfer and wash in TBS or PBS solution. • f. Counterstain with Hematoxylin or Nuclear Fast Red, followed by mounting with glycerol and sealed with a cover slip. • g. Microscopy observation.
Tissue sections were obtained from paraffin embedded, formalin fixed: (a) human seminal vesicle and (b) human liver with steatohepatitis that have high content of lipofusin making them ideal reference (control) tissues to test the performance of the LG9 compound. Subsequently, they were immobilized on glass microscopy slides by standard procedures and processed as follows: • a. Deparaffinization for 5 min at room temperature in xylene. • b. […]

[3] = tested on: senescent cells in mouse lung adenomas; test: Histochemical staining of paraffin embedded, formalin fixed tissue sections, mouse lung adenomas; conditions: mouse lung adenoma sections; stain in 70% ethanol, 10 min; microscopy
Experimental: as §1, with “(a) irradiated” for “(a)”, “laryngeal tumors” for “seminal vesicle”, “mouse lung adenomas,” for “human liver”, “established presence” for “steatohepatitis that have high content”, “senescent cells [as described in Georgakopoulou et al, Aging (Albany N.Y.) 2013].” for “lipofusin making them ideal reference (control) tissues to test the SBB assay.”
(§2) Tissue sections were obtained from paraffin embedded, formalin fixed: (a) irradiated human laryngeal tumors and (b) mouse lung adenomas. Subsequently, they were immobilized on glass microscopy slides by standard procedures and processed as follows: • a. Deparaffinization for 5 min at room temperature in xylene. • b. […]

[4] = tested on: senescent cells in irradiated human laryngeal tumors; test: Histochemical staining of paraffin embedded, formalin fixed tissue sections, irradiated human laryngeal tumors; conditions: irradiated human laryngeal tumor sections; stain in 70% ethanol, 10 min; microscopy
Experimental: as §1, with “(a) irradiated” for “(a)”, “laryngeal tumors” for “seminal vesicle”, “mouse lung adenomas,” for “human liver”, “established presence” for “steatohepatitis that have high content”, “senescent cells [as described in Georgakopoulou et al, Aging (Albany N.Y.) 2013].” for “lipofusin making them ideal reference (control) tissues to test the SBB assay.”
as §2

[5] = tested on: senescent cells in human thymus; test: Histochemical staining of human thymus tissue sections (cortex and medulla); conditions: cortex and medulla of the human thymus
Experimental: as §1, with “fixed,” for “fixed: (a)”, “thymus” for “seminal vesicle”, “specifically from the cortex and medulla” for “(b) human liver with steatohepatitis that have high content”, “this organ.” for “lipofusin making them ideal reference (control) tissues to test the SBB assay.”, “LG9 SBB-analogue” for “SSB dye”

[6] = tested on: senescent cells in liver biopsies; test: Histochemical staining of liver tissue sections with high content of lipofuscin
Experimental: as §1, with “fixed” for “fixed: (a) human seminal vesicle and (b) human”, “biopsies” for “with steatohepatitis”, “lipofusin.” for “lipofusin making them ideal reference (control) tissues to test the SBB assay.”, “LG46 or LG48 analogue” for “SSB dye”

[7] = per Georgakopoulou et al, Aging 2013; cited from earlier work
Saos2-p53 Tet-On cells = test: Histochemical staining of cell spreads on cover slips; format: cell-based; conditions: Saos2-p53 Tet-On cells after p53 induction; stain in ethanol, 10 min
Experimental: Saos2-p53 Tet-On cells were grown on cover slips and collected after p53 induction to induce senescence. Cover slips were treated as follows: • a. Fixation in ice-cold ethanol or methanol for 4 min. • b. Application of SSB Dye, diluted in ethanol and filtered, on cells for 10 min. • c. Quick wash in 50% (v/v) ethanol. • d. Transfer and wash in TBS or PBS solution. • e. Counterstain with Nuclear Fast Red, followed by mounting with glycerol and sealing with a cover slip. • f. Microscopy observation.
Saos2-p53 Tet-On cells were grown on cover slips and collected […] after p53 induction to induce senescence. Cover slips were treated as follows: • a. Fixation in ice-cold ethanol or methanol for 4 min. • b. Application of the LG9 SBB-analogue, diluted in ethanol and filtered, on cells for 10 min. • c. Quick wash in 50% (v/v) ethanol. • d. Transfer and wash in TBS or PBS solution. • e. Counterstain with Nuclear Fast Red, followed by mounting with glycerol and sealing with a cover slip. • f. Microscopy observation.

| Structure (SMILES) | ethanol solubility in the staining method [1] | staining of lipofuscin rich cells [2] | staining of senescent cells [3] | staining of senescent cells [4] | staining of cells [6] | other results |
| --- | --- | --- | --- | --- | --- | --- |
| CC1(CCCO)Nc2cccc3c(/N=N/c4ccc(/N=N/c5ccccc5)c5ccccc45)ccc(c23)N1 (stereo not drawn) [Example 5, 3-(2-Methyl-6-((E)-(4-((E)-phenyldiazenyl)naphthalen-1-yl)diazenyl)-2,3-dihydro-1H-perimidin-2-yl)propan-1-ol] | – | – | – | – | – | melting point: 124 to 126 °C |
| CC1(CO)Nc2cccc3c(/N=N/c4ccc(/N=N/c5ccccc5)c5ccccc45)ccc(c23)N1 (stereo not drawn) [LG9, (2-methyl-6-((E)-(4-((E)-phenyldiazenyl)naphthalen-1-yl)diazenyl)-2,3-dihydro-1H-perimidin-2-yl)methanol] | does not encounter the ethanol solubility problems | stained cells | stained senescent cells | stained senescent cells | – | staining of senescent cells [5]: stained senescent cells |
| CC1(C)Nc2cccc3c(/N=N/c4ccc(/N=N/c5cccc(O)c5)c5ccccc45)ccc(c23)N1 [LG46, 3-((E)-(4-((E)-(2,2-dimethyl-2,3-dihydro-1H-perimidin-6-yl)diazenyl)naphthalen-1-yl)diazenyl)phenol] | does not encounter the ethanol solubility problems | – | – | – | stained cells | – |
| CC1(C)Nc2cccc3c(/N=N/c4ccc(/N=N/c5ccc(CCO)cc5)c5ccccc45)ccc(c23)N1 [LG48, 2-(4-((E)-(4-((E)-(2,2-dimethyl-2,3-dihydro-1H-perimidin-6-yl)diazenyl)naphthalen-1-yl)diazenyl)phenyl)ethanol] | does not encounter the ethanol solubility problems | – | – | – | stained cells | – |
| CC1(C)Nc2cccc3c(/N=N/c4ccc(/N=N/c5ccccc5)c5ccccc45)ccc(c23)N1 [SBB, Sudan Black B, reference compound] | – | stained cells | clearly stained | clearly stained | – | ethanol solubility of the SBB stain [7]: ethanol solubility problems; staining of senescent cells (Saos2-p53 Tet-On cells): clearly stained |
